Structures can show the parent of a compound that is named as a salt.
Target: T1, activated ROCK II (Rattus norvegicus, UniProt Q62868)
T1 construct: purchased Upstate Biotechnology 14-338
Assay: Test for Evaluation of Inhibiting Activity to Rho Kinase
Format: biochemical
Details: S6 Kinase Substrate Peptide, [γ-32P]ATP, 30° C. for 15 minutes, Ki=IC50/(1+S/Km)
Experimental: In order to find the utility of the present invention compound, a Rho kinase inhibiting activity of the present invention compound was evaluated. The details thereof will be illustrated under the item of “Pharmacological Test (Test for Evaluation of Rho Kinase Inhibiting Activity)” in the Examples which will be mentioned later. The evaluation of the Rho kinase inhibiting activity of the present invention compound was carried out in accordance with the methods mentioned in J. Biol. Chem., 274, 32418 (1999) by Kaibuchi, et al. and mentioned in the instruction manual for use attached to the commercially available activated ROCK II [Upstate Biotechnology, Catalog No. 14-338 (5 units/50 μl)].
A. Test for Evaluation of Inhibiting Activity to Rho Kinase
In order to test the usefulness of the compounds of the present invention as a Rho kinase inhibitor, inhibiting activities of the compounds of the present invention to Rho kinase were evaluated and investigated in accordance with the methods of Kaibuchi, et al. mentioned in J. Biol. Chem., 274, 32418, 1999 and also with the methods mentioned in the instruction manual for use attached to commercially available activated ROCK II [Upstate Biotechnology, Catalog No. 14-338, (5 unite/50 μl)]. With regard to the test compounds, the compounds 5-1 to 5-73 (except the compounds 5-2, 5-9, 5-18, 5-37 and 5-38) were used.
A buffer was prepared so as to make tris(hydroxymethyl)aminomethane (Tris) (pH 7.5), 50 mM, ethyleneglycol bis(β-aminoethyl ether)-N,N,N′,N′-tetraacetic acid (EGTA), 2 mM, ethylenediaminetetraacetic acid (EDTA), 1 mM, magnesium chloride (MgCl2) 5 mM, β-glycerol phosphate, 5 mM, and dithiothreitol (DTT), 2 mM, by mixing them.
A mixed liquid of a 10 mM ATP solution with a commercially available [γ-^32P]ATP solution [NEN, Code No. NEG-002A] was diluted with the buffer to prepare a 300 μM ATP [γ-^32P]ATP solution.
A Commercially Available Activated ROCK II [Upstate Biotechnology, Catalog No. 14-338, (5 Units/50 μl)] was diluted to a concentration of 1/100 with the buffer to prepare an activated ROCK II solution.
A S6 Kinase Substrate Peptide [Upstate Biotechnology, Catalog No. 12-124,] (2 mg) was dissolved in distilled water to prepare a 1 mM substrate solution.
A test compound was dissolved in 10% aqueous dimethyl sulfoxide solution.
1) The test compound solution is placed in a microtube.
2) The 300 μM ATP [γ-^32P]ATP solution is added to the microtube followed by cooling to 4° C.
3) After that, a permanently activated ROCK II solution, 1 mM substrate solution and buffer are added to each microtube in that order, and the whole is mixed and cooled again at 4° C.
4) The microtube is placed in an incubator (30° C.) and the mixture is subjected to reaction for 15 minutes.
5) After cooling to 4° C., a 250 mM phosphoric acid solution (5 μl) is added to each microtube to stop the reaction.
6) The reaction solution (30 μl) is taken out from each microtube and spotted on a filter paper (Whatman P81) so that the reaction product (phosphorylated substrate) is adsorbed to the filter paper.
7) The filter paper is transferred to a beaker in which a 75 mM phosphoric acid solution is placed and shaken for 5 minutes so that unreacted [γ-^32P]AfP is washed out. The washing operation as such is carried out four times.
8) After that, the filter paper is dipped in ethanol to dehydrate and energy amount (radioactivity) of the reaction product adsorbed to the filter paper is measured with a liquid scintillation counter.
The IC50 value was calculated by an XL-fit (IDBS).
The Ki value is calculated by the following formula. S is an ATP concentration contained in the reaction solution while Km is a Michaelis-Menten constant. Ki=IC50/(1+S/Km)

T1 sequence (Q62868 11-550 limits assumed): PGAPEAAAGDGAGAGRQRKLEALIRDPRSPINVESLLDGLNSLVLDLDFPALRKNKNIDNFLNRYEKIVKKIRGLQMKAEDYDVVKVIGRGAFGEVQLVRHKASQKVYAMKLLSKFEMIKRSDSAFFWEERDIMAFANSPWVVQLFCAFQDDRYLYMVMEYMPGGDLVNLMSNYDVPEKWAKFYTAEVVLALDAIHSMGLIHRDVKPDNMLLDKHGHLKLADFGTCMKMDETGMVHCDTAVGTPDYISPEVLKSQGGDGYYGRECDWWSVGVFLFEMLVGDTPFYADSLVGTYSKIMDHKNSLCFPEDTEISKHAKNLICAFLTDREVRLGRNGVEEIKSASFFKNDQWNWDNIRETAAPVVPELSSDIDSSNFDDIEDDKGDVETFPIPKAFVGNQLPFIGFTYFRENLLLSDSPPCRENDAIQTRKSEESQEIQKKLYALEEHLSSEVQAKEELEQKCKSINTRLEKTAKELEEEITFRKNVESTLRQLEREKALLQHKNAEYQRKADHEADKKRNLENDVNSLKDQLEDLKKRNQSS

| Structure (SMILES) | Ki [nM] |
| --- | --- |
| CC(C)(N)c1ccc(-c2ccc3[nH]ncc3c2-n2cccc2)cc1 [Compound 5-39, 5-[4-(1-Amino-1-methylethyl)phenyl]-4-(pyrrol-1-yl)-1H-indazole dihydrochloride] | 12 |
| CC(C)Oc1c(-c2ccc(C(C)(C)N)cc2)ccc2[nH]ncc12 [Compound 5-40, 5-[4-(1-Amino-1-methylethyl)phenyl]-4-isopropoxy-1H-indazole dihydrochloride] | 33 |
| CC(C)(N)c1ccc(-c2ccc3[nH]ncc3c2N2CCCCC2)cc1 [Compound 5-41, 5-[4-(1-Amino-1-methylethyl)phenyl]-4-(piperidin-1-yl)-1H-indazole trihydrochloride] | 14 |
| CC(C)(N)c1ccc(-c2ccc3[nH]ncc3c2N2CCCC2)cc1 [Compound 5-42, 5-[4-(1-Amino-1-methylethyl)phenyl]-4-(pyrrolidin-1-yl)-1H-indazole trihydrochloride] | 14 |
| CC(C)(N)c1ccc(-c2ccc3[nH]ncc3c2N2CCOCC2)cc1 [Compound 5-43, 5-[4-(1-Amino-1-methylethyl)phenyl]-4-(morpholin-4-yl)-1H-indazole trihydrochloride] | 211 |
| COc1c(-c2ccc(C(C)(C)N)cc2)ccc2[nH]ncc12 [Compound 5-44, 5-[4-(1-Amino-1-methylethyl)phenyl]-4-methoxy-1H-indazole dihydrochloride] | 13 |
| COc1c(-c2ccc(C(C)(C)N)cn2)ccc2[nH]ncc12 [Compound 5-45, 5-[5-(1-Amino-1-methylethyl)pyridin-2-yl]-4-methoxy-1H-indazole trihydrochloride] | 27 |
| COc1c(-c2ccc(C3(N)CCCC3)cn2)ccc2[nH]ncc12 [Compound 5-46, 5-[5-(1-Aminocyclopentyl)pyridin-2-yl]-4-methoxy-1H-indazole trihydrochloride] | 27 |
| CCOc1c(-c2ccc(C(C)(C)N)cn2)ccc2[nH]ncc12 [Compound 5-47, 5-[5-(1-Amino-1-methylethyl)pyridin-2-yl]-4-ethoxy-1H-indazole trihydrochloride] | 45 |
| CC(C)(N)c1ccc(-c2ccc3[nH]ncc3c2O)cc1 [Compound 5-48, 5-[4-(1-Amino-1-methylethyl)phenyl]-4-hydroxy-1H-indazole dihydrochloride] | 29 |
| CCOc1c(-c2ccc(C(C)(C)N)cc2)ccc2[nH]ncc12 [Compound 5-49, 5-[4-(1-Amino-1-methylethyl)phenyl]-4-ethoxy-1H-indazole dihydrochloride] | 17 |
| CC(C)Oc1c(-c2ccc(C(C)(C)N)cn2)ccc2[nH]ncc12 [Compound 5-50, 5-[5-(1-Amino-1-methylethyl)pyridin-2-yl]-4-isopropoxy-1H-indazole trihydrochloride] | 84 |
| CCC(N)(CC)c1ccc(-c2ccc3[nH]ncc3c2OC)nc1 [Compound 5-51, 5-[5-(1-Amino-1-ethylpropyl)pyridin-2-yl]-4-methoxy-1H-indazole trihydrochloride] | 38 |
| CCCOc1c(-c2ccc(C(C)(C)N)cc2)ccc2[nH]ncc12 [Compound 5-52, 5-[4-(1-Amino-1-methylethyl)phenyl]-4-n-propoxy-1H-indazole dihydrochloride] | 14 |
| CC(C)(N)c1ccc(-c2ccc3[nH]ncc3c2OC(F)F)cc1 [Compound 5-53, 5-[4-(1-Amino-1-methylethyl)phenyl]-4-difluoro-methoxy-1H-indazole dihydrochloride] | 3.6 |
| CC(C)(N)c1ccc(-c2ccc3[nH]ncc3c2OCC(F)(F)F)cc1 [Compound 5-54, 5-[4-(1-Amino-1-methylethyl)phenyl]-4-(2,2,2-tri-fluoroethoxy)-1H-indazole dihydrochloride] | 31 |

| Structure (SMILES) | Ki [nM] |
| --- | --- |
| CCCCOc1c(-c2ccc(C(C)(C)N)cc2)ccc2[nH]ncc12 [Compound 5-55, 5-[4-(1-Amino-1-methylethyl)phenyl]-4-n-butoxy-1H-indazole dihydrochloride] | 13 |
| CC(C)(N)c1ccc(-c2ccc3[nH]ncc3c2OCCF)cc1 [Compound 5-56, 5-[4-(1-Amino-1-methylethyl)phenyl]-4-(2-fluoro-ethoxy)-1H-indazole dihydrochloride] | 26 |
| C=CCOc1c(-c2ccc(C(C)(C)N)cc2)ccc2[nH]ncc12 [Compound 5-57, 4-Allyloxy-5-[4-(1-amino-1-methylethyl)phenyl]-1H-indazole dihydrochloride] | 23 |
| CCCOc1c(-c2ccc(C(C)(C)N)cn2)ccc2[nH]ncc12 [Compound 5-58, 5-[5-(1-Amino-1-methylethyl)pyridin-2-yl]-4-n-propoxy-1H-indazole trihydrochloride] | 39 |
| CC(C)(N)c1ccc(-c2ccc3[nH]ncc3c2OC(F)F)nc1 [Compound 5-59, 5-[5-(1-Amino-1-methylethyl)pyridin-2-yl]-4-difluoromethoxy-1H-indazole trihydrochloride] | 6.9 |
| CCOc1c(-c2ccc(C(N)(CC)CC)cn2)ccc2[nH]ncc12 [Compound 5-60, 5-[5-(1-Amino-1-ethylpropyl)pyridin-2-yl]-4-ethoxy-1H-indazole trihydrochloride] | 35 |
| CC(C)(N)c1ccc(-c2ccc3[nH]ncc3c2-c2ccncc2)cc1 [Compound 5-61, 5-[4-(1-Amino-1-methylethyl)phenyl]-4-(pyridin-4-yl)-1H-indazole trihydrochloride] | 45 |
| CC(C)(N)c1ccc(-c2ccc3[nH]ncc3c2-c2cccnc2)cc1 [Compound 5-62, 5-[4-(1-Amino-1-methylethyl)phenyl]-4-(pyridin-3-yl)-1H-indazole trihydrochloride] | 126 |
| CC(C)(N)c1ccc(-c2ccc3[nH]ncc3c2-c2ccccn2)cc1 [Compound 5-63, 5-[4-(1-Amino-1-methylethyl)phenyl]-4-(pyridin-2-yl)-1H-indazole trihydrochloride] | 241 |
| CC(C)(N)c1ccc(-c2ccc3[nH]ncc3c2-c2cn[nH]c2)cc1 [Compound 5-64, 5-[4-(1-Amino-1-methylethyl)phenyl]-4-(pyrazol-4-yl)-1H-indazole trihydrochloride] | 4.4 |
| CC(C)(N)c1ccc(-c2ccc3[nH]ncc3c2-c2cn[nH]c2)nc1 [Compound 5-65, 5-[5-(1-Amino-1-methylethyl)pyridin-2-yl]-4-(pyrazol-4-yl)-1H-indazole tetrahydrochloride] | 56 |
| CC(C)(N)c1ccc(-c2ccc3[nH]ncc3c2-c2cnco2)cc1 [Compound 5-66, 5-[4-(1-Amino-1-methylethyl)phenyl]-4-(oxazol-5-yl)-1H-indazole dihydrochloride] | 2.6 |
| CC(C)(N)c1ccc(-c2ccc3[nH]ncc3c2-c2cc[nH]n2)cc1 [Compound 5-67, 5-[4-(1-Amino-1-methylethyl)phenyl]-4-(pyrazol-3-yl)-1H-indazole trihydrochloride] | 11 |
| CC(C)(N)c1ccc(-c2ccc3[nH]ncc3c2-c2ccno2)cc1 [Compound 5-68, 5-[4-(1-Amino-1-methylethyl)phenyl]-4-(isoxazol-5-yl)-1H-indazole dihydrochloride] | 6.4 |
| CC(C)(N)c1ccc(-c2ccc3[nH]ncc3c2O)nc1 [Compound 5-69, 5-[5-(1-Amino-1-methylethyl)pyridin-2-yl]-4-hydroxy-1H-indazole trihydrochloride] | 55 |
| CC(C)(N)c1ccc(-c2ccc3[nH]ncc3c2OC2CC2)nc1 [Compound 5-70, 5-[5-(1-Amino-1-methylethyl)pyridin-2-yl]-4-cyclo-propyloxy-1H-indazole trihydrochloride] | 28 |
